Experimental data reported in US11078245B2, “Colon and pancreas cancer peptidomimetics” (PRECISION BIOLOGICS, INC., priority 2010, dated 2021).

B1: Construct 1-85: C-terminal truncation construct of MUC5AC, SEQ ID NO: 45 (protein)
chain: ATMSVGRRKLALLWALALALACTTTHSQPVTRDCHLRCTWTKWFDVDFPSPGPHGGDKETYNNIIRSGEKICRRPEEITRLQCRA
modifications: MUC5AC truncation construct (85)
B2: 1-85 (protein)
chain: B1 chain
modifications: MUC5AC truncation construct (85)
B3: Construct 1-289: C-terminal truncation construct of MUC5AC, SEQ ID NO: 49 (protein)
chain: ATMSVGRRKLALLWALALALACTTTHSQPVTRDCHLRCTWTKWFDVDFPSPGPHGGDKETYNNIIRSGEKICRRPEEITRLQCRAESHPEVSIEHLGQVVQCSREEGLVCRNQDQQGPFKMCLNYEVRVLCCETPKGCPVTSTPVTAPSTPSGRATSPTQSTSSWQKSRTTTLVTTSTTSTPQTSTTSAPTTSTTSAPTTSTTSAPTTSTTSTPQTSISSAPTSSTTSAPTSSTISARTTSIISAPTTSTTSSPTTSTTSATTTSTTSAPTSSTTSTPQTSKTSAATSS
modifications: MUC5AC truncation construct (289)
B4: 1-289 (protein)
chain: B3 chain
modifications: MUC5AC truncation construct (289)
B5: Construct 1-187: C-terminal truncation construct of MUC5AC, SEQ ID NO: 48 (protein)
chain: ATMSVGRRKLALLWALALALACTTTHSQPVTRDCHLRCTWTKWFDVDFPSPGPHGGDKETYNNIIRSGEKICRRPEEITRLQCRAESHPEVSIEHLGQVVQCSREEGLVCRNQDQQGPFKMCLNYEVRVLCCETPKGCPVTSTPVTAPSTPSGRATSPTQSTSSWQKSRTTTLVTTSTTSTPQTSTT
modifications: MUC5AC truncation construct (187)
B6: 1-187 (protein)
chain: B5 chain
modifications: MUC5AC truncation construct (187)
B7: Construct 1-338: C-terminal truncation construct of MUC5AC, SEQ ID NO: 50 (protein)
chain: ATMSVGRRKLALLWALALALACTTTHSQPVTRDCHLRCTWTKWFDVDFPSPGPHGGDKETYNNIIRSGEKICRRPEEITRLQCRAESHPEVSIEHLGQVVQCSREEGLVCRNQDQQGPFKMCLNYEVRVLCCETPKGCPVTSTPVTAPSTPSGRATSPTQSTSSWQKSRTTTLVTTSTTSTPQTSTTSAPTTSTTSAPTTSTTSAPTTSTTSTPQTSISSAPTSSTTSAPTSSTISARTTSIISAPTTSTTSSPTTSTTSATTTSTTSAPTSSTTSTPQTSKTSAATSSTTSSSGTTPSPVTTTSTASVSKTSTSHVSVSKTTHSQPVTRCTHHHHHH
modifications: MUC5AC truncation construct (338)
B8: 1-338 (protein)
chain: B7 chain
modifications: MUC5AC truncation construct (338)
B9: 1-151 (protein)
chain: ATMSVGRRKLALLWALALALACTTTHSQPVTRDCHLRCTWTKWFDVDFPSPGPHGGDKETYNNIIRSGEKICRRPEEITRLQCRAESHPEVSIEHLGQVVQCSREEGLVCRNQDQQGPFKMCLNYEVRVLCCETPKGCPVTSTPVTAPSTP
modifications: MUC5AC truncation construct (151)
B10: 1-136 (protein)
chain: ATMSVGRRKLALLWALALALACTTTHSQPVTRDCHLRCTWTKWFDVDFPSPGPHGGDKETYNNIIRSGEKICRRPEEITRLQCRAESHPEVSIEHLGQVVQCSREEGLVCRNQDQQGPFKMCLNYEVRVLCCETPK
modifications: MUC5AC truncation construct (136)

Legend:
Colon Ag = test: ELISA of NEO-101 binding inhibition by peptides against Colon Ag; parameters: species or system human
Description: An ELISA analysis of the NEO-101 binding inhibition by peptide 4-1-3-C9 and 4-1-4-C12 against Colon Ag was conducted. Aliquots of 100 μl/well Colon Ag (3 μg/ml in CBS buffer) in 96 well plate were incubated at 4° C. overnight, and the wells washed three times with TBST (0.05% Tween). The wells were blocked with 200 μl of 1% milk at RT for 1 hour. A pre-mix of NEO-101-biotin and test peptide was added at 100 μl/well and incubated at RT of 1 hour, followed by three washes with TBST. Streptavidin-HRP (100 μl of 1:2000 dilution) was added and the reaction incubated at RT for 1 hour, and the wells washed three time. TMB was added, and the wells were read at 450 nm. The control was NEO-101-biotin.

CFPAC1 cells = test: NEO-101-coupled Dynal beads rosette assay; assay type: cell-based, human; conditions: for Positive rosette cells (%): Dynal beads coupled with NEO-101, premixed with M13 clone
Description: The M13 clones identified by the biopanning were also immunoassayed using magnetic beads. Aliquots of 5 μl M13 phage (10^11/10 μl) were mixed with 10 μl NEO-101-coupled Dynal® beads at RT for 20 min on a rotator. CFPAC1 cells (30 μl of 10^6 cells/ml) were added and incubated at 4° C. for 30 min. Rosetted cells were counted (>8 beads/cell).

NEO-101 = test: Biotinylated peptide binding ELISA; conditions: biotinylated peptide on NEO-101 coated plate
Description: To solve the poor binding of peptides to 96 well plate, peptides were biotinylated using EZ-link micro NHS Biotinylation kit (Pierce Cat #21955), and labeling efficiency checked by dot blot (50%). The biotinylated peptide binding was analyzed in ELISA by adding 100 μl/well of NEO-101 (1 μg/ml) in CBS buffer to 96 well plate and incubating at 4° C. overnight, followed by three washes with TBST (0.05% Tween). The solution was blocked with 200μ/of 1% milk in TBS at RT for 20 min. Aliquots of 100 μl peptide-biotin ([…]) in 0.1% milk-TBS were added, and incubated at RT of 2 hr, followed by three washes with TBST. Streptavidin-HRP (100 μl of 1:2000 diluted in 1:10 diluted blocking buffer) was added, and the wells incubated at RT for 1 hr, followed by three washed. TMB was then added, and the wells were read at 450 nm. Positive controls for NPC-1C binding used 4B6-biotin. The results are shown in FIG. 11, which indicates biotinylated peptides bind to NPC-1C coated plate.

[1] = tested on: CFPAC1 culture supernatant; test: Peptide competition ELISA on CFPAC1 culture supernatant-coated plates; assay type: binding, human
Source text: FIG. 15A is a bar graph showing the percent blocking of NEO-101 by peptides (identified by biopanning an M13 phage library) on CFPAC1 culture supernatant-coated plates. FIG. 15B is a bar graph of OD values showing blocking of NEO-101 by peptides (identified by biopanning an M13 phage library) on CFPAC1 culture supernatant-coated plates.
Next, the inhibition of NEO-101 beads binding to CFAC1 Cells (rosetted cells) by peptides 4-1-4C12 and 4-1-4C12-R2 was investigated, as shown in FIG. 14A. FIG. 14B was the results from positive control with 4B6 in competitive beads assay. […] Therefore, the peptide 4-1-4-C12 is a peptidomimetic of the NPC-1 epitope and may be used to elicit a NPC-1 specific antibodies.

NEO-101 antibody = test: Immunofluorescence of 293T cells transfected with MUC5AC truncation constructs; assay type: cell-based; conditions: 2 μg/ml NEO-101 antibody
Description: Six truncation constructs were made representing C-terminal truncations of the full-length MUC5AC protein (SEQ ID NO: 36).
293T cells were cultured on FBS coated cover slips for 24 hours. Cells were transiently transfected with 2 μg of MUC5AC constructs of Table 8 with LIPOFECTAMINE®. Cells were grown for about 72 hours, fixed with about 4% PFA in PBS, washed with PBS, permeabilized with about 0.2% […] in PBS and washed with PBS. Cells were then blocked with about 1% BSA in PBS, and about 2 μg/ml NEO-101 antibody was added to sample wells and about 2 μg/ml of an Isotype control was added for 1 hour at room temp. Cells were washed with PBS and second anti human-FITC antibody (1:500) was added to all wells and to the second antibody control wells. Cells were washed and mounted on slides with DAPI hard mount. Cover slides were allowed to sit over night at about 4° C. Slides were visualized with a Nikon Eclipse Ti microscope with an Andor camera. At least 3 random fields were counted per transfection.

Molecule	Positive rosette cells (%) (CFPAC1 cells)	Binds NPC-1? (NEO-101 antibody)	further results
YSHSWHTLPESGEVTSGGGS (NPC-1 epitope peptidomimetic) [Peptide 4-1-3-C8]	0%	–	Blocking of NEO-101 antibody binding to colon Ag (Colon Ag): No; blocking of NEO-101-coupled beads binding to CFPAC1 cells (CFPAC1 cells): blocked; NEO-101 binding (NEO-101): Yes
YSHSSLPDDWFRYINYGGGS (NPC-1 epitope peptidomimetic) [Peptide 4-1-4-C12]	0%	–	Blocking of NEO-101 antibody binding to colon Ag (Colon Ag): Yes; competition against bound CFPAC1 antigen with NEO-101 binding [1]: higher inhibition in low concentration comparing with 4-1-3C9; blocking of NEO-101-coupled beads binding to CFPAC1 cells (CFPAC1 cells): blocked; NEO-101 binding (NEO-101): Yes
YSHSFPEDYFRYTNQKGGGS (NPC-1 epitope peptidomimetic) [Peptide 4-1-3-C9]	0%	–	Blocking of NEO-101 antibody binding to colon Ag (Colon Ag): Yes; competition against bound CFPAC1 antigen with NEO-101 binding [1]: significant competition; blocking of NEO-101-coupled beads binding to CFPAC1 cells (CFPAC1 cells): blocked; NEO-101 binding (NEO-101): Yes
YSHSWHTLPEKSLDENGGGS (NPC-1 epitope peptidomimetic) [Peptide 4-1-2-C5]	0%	–	blocking of NEO-101-coupled beads binding to CFPAC1 cells (CFPAC1 cells): blocked
SLPDDWFRYINYSLPDDWFRYINY (NPC-1 epitope peptidomimetic) [Peptide 4-1-4C12-R2]	–	–	competition against bound CFPAC1 antigen with NEO-101 binding [1]: significant competition
YSHSVHAIEDNWSPRGGGGS (NPC-1 epitope peptidomimetic) [Peptide 4-1-3-C11, reference compound]	38%	–	Blocking of NEO-101 antibody binding to colon Ag (Colon Ag): No; NEO-101 binding (NEO-101): No
B1	–	no binding	–
B2	–	No	–
B3	–	binding activity	–
B4	–	Yes	–
B5	–	binding activity	–
B6	–	Yes	–
B7	–	binding activity	–
B8	–	Yes	–
B9	–	Yes	–
B10	–	No	–
